These compounds were tested against T1, CHK1 (checkpoint kinase-1) (Homo sapiens, UniProt O14757) (assay: in vitro binding test against human CHK1 (Eurofins Discovery), at […]).
T1 construct: gene CHEK1
T1 sequence (O14757 1-476): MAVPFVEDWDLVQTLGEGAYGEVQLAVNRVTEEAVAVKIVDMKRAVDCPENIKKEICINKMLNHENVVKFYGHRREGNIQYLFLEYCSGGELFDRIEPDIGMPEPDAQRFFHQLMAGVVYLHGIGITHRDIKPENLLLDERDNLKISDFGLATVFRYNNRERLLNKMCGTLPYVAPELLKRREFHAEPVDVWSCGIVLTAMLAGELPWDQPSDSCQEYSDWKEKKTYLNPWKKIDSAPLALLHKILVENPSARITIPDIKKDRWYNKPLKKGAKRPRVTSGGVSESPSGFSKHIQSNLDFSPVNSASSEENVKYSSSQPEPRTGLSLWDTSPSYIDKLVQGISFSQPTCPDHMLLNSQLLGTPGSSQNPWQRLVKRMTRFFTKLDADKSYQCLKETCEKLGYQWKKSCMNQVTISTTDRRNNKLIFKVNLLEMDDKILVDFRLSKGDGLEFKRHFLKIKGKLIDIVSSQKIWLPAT

inhibition at 1 µM	SMILES
95%	CNC(=O)c1ccc(NC(=O)Nc2cnc(C)cn2)c(OC[C@@H]2CNCCO2)c1 [9a]
90%	CNC(=O)c1ccc(OC[C@@H]2CNCCO2)c(NC(=O)Nc2cnc(C)cn2)c1 [9b]
98%	Cc1cnc(NC(=O)Nc2cc(Br)c(C)cc2OC[C@@H]2CNCCO2)cn1 [rabusertib]
